# According to BindingDB's records for doi:10.7270/Q2CZ35ZF (Southern Research Institute, 2016):
# Biological target: Cystic fibrosis transmembrane conductance regulator (Homo sapiens, UniProt P13569)
# Sequence (P13569 whole entry): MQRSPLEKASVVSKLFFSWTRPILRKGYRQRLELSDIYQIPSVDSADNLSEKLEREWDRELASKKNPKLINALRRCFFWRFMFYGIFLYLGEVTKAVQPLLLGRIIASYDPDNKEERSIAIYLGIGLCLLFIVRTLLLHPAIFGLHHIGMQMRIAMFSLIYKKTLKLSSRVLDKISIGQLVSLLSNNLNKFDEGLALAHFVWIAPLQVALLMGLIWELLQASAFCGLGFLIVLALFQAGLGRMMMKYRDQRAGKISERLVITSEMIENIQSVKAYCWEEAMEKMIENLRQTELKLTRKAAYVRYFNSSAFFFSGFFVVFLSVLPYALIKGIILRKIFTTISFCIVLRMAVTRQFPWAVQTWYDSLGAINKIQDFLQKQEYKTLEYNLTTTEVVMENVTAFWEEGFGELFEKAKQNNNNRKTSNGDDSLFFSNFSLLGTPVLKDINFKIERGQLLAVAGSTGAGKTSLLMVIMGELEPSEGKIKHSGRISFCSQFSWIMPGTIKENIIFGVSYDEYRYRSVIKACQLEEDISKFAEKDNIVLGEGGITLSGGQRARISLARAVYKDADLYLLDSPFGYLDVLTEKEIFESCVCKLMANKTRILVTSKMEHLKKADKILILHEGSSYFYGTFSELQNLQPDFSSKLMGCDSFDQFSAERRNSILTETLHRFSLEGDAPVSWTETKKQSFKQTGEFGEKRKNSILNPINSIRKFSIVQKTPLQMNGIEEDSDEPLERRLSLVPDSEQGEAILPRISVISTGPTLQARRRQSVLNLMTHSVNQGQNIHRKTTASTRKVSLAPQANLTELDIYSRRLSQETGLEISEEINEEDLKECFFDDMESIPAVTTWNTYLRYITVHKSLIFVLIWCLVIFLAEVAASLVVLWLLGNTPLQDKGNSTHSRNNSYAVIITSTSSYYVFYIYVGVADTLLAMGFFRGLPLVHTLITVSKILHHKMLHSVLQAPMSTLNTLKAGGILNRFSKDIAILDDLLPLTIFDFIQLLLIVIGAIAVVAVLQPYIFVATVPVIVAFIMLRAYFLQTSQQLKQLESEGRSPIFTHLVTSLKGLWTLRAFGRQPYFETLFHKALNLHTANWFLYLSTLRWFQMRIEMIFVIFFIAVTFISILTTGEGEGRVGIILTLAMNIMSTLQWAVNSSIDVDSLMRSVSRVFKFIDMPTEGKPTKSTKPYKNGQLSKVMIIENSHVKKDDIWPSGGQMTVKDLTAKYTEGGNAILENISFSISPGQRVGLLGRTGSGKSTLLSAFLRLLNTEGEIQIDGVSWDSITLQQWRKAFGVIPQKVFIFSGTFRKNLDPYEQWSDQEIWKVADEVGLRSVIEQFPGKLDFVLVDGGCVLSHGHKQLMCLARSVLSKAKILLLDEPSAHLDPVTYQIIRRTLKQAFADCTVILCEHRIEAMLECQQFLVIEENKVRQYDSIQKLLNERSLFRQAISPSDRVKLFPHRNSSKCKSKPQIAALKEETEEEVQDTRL
smiles,measurement,value
CO[C@H]1/C=C/O[C@@]2(C)Oc3c(C)c(O)c4c(c3C2=O)C(=O)/C(=C/NN2CCN(C)CC2)C(=C4O)NC(=O)/C(C)=C\C=C\[C@H](C)[C@H](O)[C@@H](C)[C@@H](O)[C@@H](C)[C@H](OC(C)=O)[C@@H]1C [Rifampicin],EC50,> 50 µM
CCCc1nc(C)c2c(=O)[nH]c(-c3cc(S(=O)(=O)N4CCN(CC)CC4)ccc3OCC)nn12 [CHEBI:46295],EC50,> 50 µM
same,IC50,0.14 µM
COc1cc(/C=C(/C#N)c2nc(C)cs2)cc2c1OCO2 [AB00984802-01],EC50,> 67 µM
same,IC50,21 µM
O=C(O)c1ccccc1-c1c2cc(Br)c(=O)cc-2oc2[c]([Hg])c(O)c(Br)cc12 [AB00053570_02],EC50,> 50 µM
same,IC50,> 50 µM
CO[C@H]1/C=C/O[C@@]2(C)Oc3c(C)c(O)c4c(c3C2=O)C(=O)/C(=C/NN2CCN(C)CC2)C(=C4O)NC(=O)/C(C)=C\C=C\C(C)[C@H](O)[C@@H](C)[C@@H](O)[C@@H](C)[C@@H](OC(C)=O)[C@@H]1C (some centres undefined) [AB00052086_02],EC50,> 50 µM
C[n+]1c2cc(N)ccc2cc2ccc(N)cc21 [AB00053810_11],EC50,> 50 µM
same,IC50,5.71 µM
"Nc1ccc2cc3ccc(N)cc3nc2c1 [acridine-3,6-diamine]",EC50,> 50 µM
same,IC50,8.88 µM
CN1[C@@H]2CC[C@H]1CC(OC(=O)C(CO)c1ccccc1)C2 (some centres undefined) [AB00694549-11],EC50,> 50 µM
same,IC50,21.4 µM
O=S(=O)(Nc1ccc(-c2cn3cccnc3n2)cc1)c1ccc2c(c1)OCCO2 [AB01003479-01],EC50,> 49 µM
same,IC50,> 49 µM
O=C(CCCCCCC(=O)Nc1ccccc1)NO [Zolinza],EC50,> 50 µM
same,IC50,1.55 µM
CC(C)C[C@@H](NC(=O)[C@H](Cc1ccccc1)NC(=O)c1cnccn1)B(O)O [AB01275474-01],EC50,> 50 µM
same,IC50,1.29 µM
N#Cc1ccc(CN2CCc3cc([N+](=O)[O-])ccc32)c(F)c1 [AB01004372-01],EC50,> 67 µM
same,IC50,> 67 µM
CCN(CC)CCOc1ccc2c(c1)C(=O)c1cc(OCCN(CC)CC)ccc1-2 [Amixin IC],EC50,> 50 µM
same,IC50,30.2 µM
CC(C)C[C@H](NC(=O)[C@H](Cc1ccccc1)NC(=O)c1cnccn1)B(O)O,EC50,> 50 µM
"CN(C/C=C/C#CC(C)(C)C)Cc1cccc2ccccc12 [(6,6-Dimethyl-hept-2-en-4-ynyl)-methyl-naphthalen-1-ylmethyl-amine(Terbinafine)]",EC50,> 50 µM
same,IC50,> 25 µM
O=C(O)/C=C/c1ccc(Cn2ccnc2)cc1,EC50,> 50 µM
same,IC50,3.43 µM
